Laboratory results published in paper PMC12172326 (Journal of Biomedical Science, 2025).

Experiments:
[1] = system: mice subjected to controlled cortical impact (CCI) TBI; test: CCI TBI in mice: histology and GFAP/IBA1 immunohistochemistry; assay type: in vivo, mouse
Description: (§1) For behavioral analyses, mice were assessed for spatial memory, gait function, motor coordination/balance function and home cage activity. The animals were subsequently evaluated for cellular changes using histology and immunohistochemistry after euthanasia.
(§2) In order to develop a controlled cortical impact (CCI) model of TBI, mice were anesthetized with 2.5% 2,2,2-tribromoethanol (Avertin, 400 mg/kg, I.P.) (Sigma, St. Louis, MO, USA) and placed in a stereotaxic frame (Kopf Instruments, Tujunga, CA, USA). A 4 mm craniotomy was performed under sterile procedures; the craniotomy point was selected midway between the lambda and bregma sutures, and laterally midway between the central suture and the temporalis muscle. The skull fragment was then carefully removed without disruption of the underlying dura on the right side of the head. Before injury, the tip of the impactor was angled and kept perpendicular to the exposed cortical surface. The mouse CCI instrument consisted of an electromagnetic impactor, Impact One (Leica Biosystems Inc., Buffalo Grove, IL, USA) that allows independent manipulation of injury severity by adjusting the contact duration and velocity of a metal impactor and the depth of cortical deformation. In these experiments, the contact velocity was set at 5.0 m/s, the dwell time was set at 0.2 s, and the deformation depth was set at 1.5 mm to produce a moderate TBI. The injury site was cleaned and dried by use of sterile cotton tipped applicators prior to suturing the wound. During surgery and recovery, the body temperature of all animals was maintained at 36–37 °C by using a heating pad.
Two weeks following injury, mice were deeply anesthetized using isoflurane and underwent transcardial perfusion with 30 ml of phosphate-buffered saline (PBS) followed by 120 ml of 4% paraformaldehyde (PFA) in PBS. The brains were collected and placed into a 4% PFA solution for post-fixation overnight, and then transferred to 25% followed by 30% sucrose solution in PBS for dehydration. Sections of a region extending from the striatum to the hippocampus were cut coronally into 25 μm thickness using a cryostat (Leica Biosystems Inc., Buffalo Grove, IL, USA) and stored in a cryoprotectant solution. These sections were subjected to Giemsa (nuclear/chromosomal) staining and immunohistochemical analysis.
Brain sections obtained 2 weeks post-TBI, with a thickness of 25 µm, were placed onto slides. These sections were stained using a 10% Giemsa KH2PO4 buffered solution (pH 4.5) for 30 min at 40 °C. Following a rinse, the slides underwent de-staining, differentiation, dehydration in absolute ethanol, cleared in xylene, and then were cover-slipped. Subsequently, the slides were scanned using an All-in-One Fluorescence Microscope BZ-X710 (Keyence Corporation of America, Itasca, IL, USA). Brain image areas were quantified using ImageJ 1.52q software (National Institutes of Health, Bethesda, MD, USA). The contusion volume size and lateral ventricle size were determined as described previously, using the calculation formulas as follows:
Contusion volume size: Σ (area of contralateral hemisphere–area of ipsilateral hemisphere)/Σ area of contralateral hemisphere × 100.
Lateral ventricle size: Σ area of ipsilateral lateral ventricle/Σ area of contralateral lateral ventricle.
Nine brain sections from each mouse were quantified, spanning regions from bregma 0.86 mm to − 1.46 mm.
Immunohistochemistry for GFAP and IBA1 was performed as described previously. […]

[2] = system: mice subjected to controlled cortical impact (CCI) TBI; test: CCI TBI in mice: behavioral assessment; assay type: in vivo, mouse; conditions: for CCI-induced asymmetry, elevated body swing test: 1 week post injury; for home cage activity during the initial 11 h following CCI: dark phase; for CCI-induced reduction in brake time (gait): left hind limb, 1 week after injury
Description: as §1, §2
Behavioral tests were conducted 1 week and 2 weeks post the CCI/sham procedure, to evaluate motor function and coordination differences between groups, and to compare with data performed 1 week prior to either procedure. All behavioral tests were conducted during the animals’ day light cycle; home cages were moved to behavioral rooms at least 1 h before testing.
Home cage activity monitoring was automatically and non-intrusively monitored using the digital individually ventilated cage system (DVC™; Tecniplast). Mice were individually housed, and their activity was tracked for 3 days before CCI/sham and 7 days after CCI/sham procedures.
Beam Walking Test (BWT) was used to evaluate CCI-induced impairments in motor coordination. Mice have an intrinsic preference for a darkened enclosed environment, as compared to an open bright field. Each mouse was placed in a darkened one-side-open cube box for 2 min for habituation and then was brought to the other (light) end of the beam, to start the trial. Two beams were used in this study with the following dimensions: 0.6 cm or 1.2 cm (width) × 91 cm (length). The time taken for each mouse to traverse the beam to reach the dark cube box and the ‘immobility time’ spent between the moment a mouse was initially placed on the beam and it started walking were recorded. Two trials were recorded for each animal with the 1.2 cm-width beam, and an additional two trials with the 0.6 cm-width were subsequently recorded. The mean times to traverse the beam and the immobility times were calculated, and a plot was generated to evaluate treatment effects; these times were then used for statistical analysis.
Gait analysis was employed to assess gait parameters following a specific protocol provided by the DigiGait manufacturer (Mouse Specifics, Inc., Framingham, MA, USA). The study tracked gait function at three time points: baseline, 1-week prior to CCI (PRE), and 1- and 2-weeks post-CCI. At the beginning of the trial, mice were brought to the test chamber for habituation to the new environment for 2 min, and then were given a 1-min run at 5 cm/sec before a 1-min break. […] Videos were assessed using DigiGait software to evaluate parameters that included stride duration, length, paw angle, and stance for all four limbs, following Mouse Specifics, Inc.'s procedures. […]

[3] = 2 weeks after CCI, 13.23 and 26.47 mg/kg I.P. at 30 min and 24 h
[4] = both low and high doses, p < 0.0001
[5] = high dose, initial 5 min on Day 2, 1 week after CCI, vs CCI + Vehicle
[6] = high dose, vs CCI + vehicle, p < 0.05
[7] = low dose, p < 0.05 vs CCI + Vehicle

## Nc1cccc2c1C(=S)N(C1CCC(=O)NC1=O)C2=O (stereo not shown) [3-MP, 3-monothiopomalidomide]
[1]; [3]
  contusion volume (loss of cortical tissue): unchanged
  lateral ventricle enlargement: unchanged
[1]; both low and high doses, ipsilateral (p < 0.0001) and contralateral cortex
  TBI-induced morphological alterations in astrocytes (surface area, cell volume, branch area, branch length, number of branches): significantly ameliorated
[1]; [4]
  CCI-induced microglial morphological alterations (ramification index, branches, branch length, spanned area, junctions, endpoints): partially but significantly returned
  astrocyte complexity (total Sholl intersections): significantly mitigated
[2]; both low and high doses, p < 0.05 vs CCI + Vehicle
  CCI-induced elevation of swing duration CV (gait): significantly reduced
[2]; high dose
  CCI-induced asymmetry, elevated body swing test: trend towards normalization
[2]; high dose, vs CCI + vehicle
  home cage activity during the initial 11 h following CCI: did not reach statistical significance
[2]; high dose, initial 5 min, vs CCI + Vehicle
  discrimination index (DI) of distance traveled: substantially higher
[2]; [5]
  ambulatory time in the center zone, novelty-dependent exploration test: significantly lower
  distance traveled, novelty-dependent exploration test: significantly lower
[2]; high dose, p < 0.05
  CCI-induced reduction in brake time (gait): significantly alleviated
[2]; [6]
  discrimination index (DI) of duration in the center: significantly higher
  home cage activity on the day after CCI: significantly higher
[2]; low dose and high dose, vs CCI + vehicle, p < 0.05
  lower home cage activity 24 h later (night + 1): significantly mitigated
[2]; [7]
  CCI-induced asymmetry, elevated body swing test: notably reduced
  paw angle impairment (gait): mitigated
[2]; low dose, vs CCI + vehicle, p < 0.05
  home cage activity during the initial 11 h following CCI: notably higher
[2]; low dose
  CCI-induced reduction in brake time (gait): trend towards improvement
